# Test results reported in PubChem BioAssay (NCI).
# Several values for one entry are separate records, joined by “and”; a condition that tells them apart may be missing. Equal values may be shown once.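 Exposure lasted 48 hours, with cells grown in 96-well plates and compounds tested at five concentrations. The concentration for full growth arrest is given as TGI.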
# Assays:
# Test in all cases: NCI-60 cell line screen, 48 h
# DMS 114 small cell lung = test system: DMS 114 small cell lung
# KM20L2 colon = test system: KM20L2 colon
# M19-MEL melanoma = test system: M19-MEL melanoma
# LXFL 529 NSCLC = test system: LXFL 529 NSCLC
# RXF-631 renal = test system: RXF-631 renal
# XF 498 CNS = test system: XF 498 CNS
SMILES,TGI (DMS 114 small cell lung) [µM],TGI (KM20L2 colon) [µM],TGI (M19-MEL melanoma) [µM],TGI (LXFL 529 NSCLC),TGI (RXF-631 renal) [µM],TGI (XF 498 CNS) [µM]
COC(=O)n1c(CBr)c(Br)c2ccccc21,> 100,> 100,> 100,–,–,–
CC(=O)Nc1ccc(-c2nnc(SCC(=O)Nc3ccccc3C)o2)cc1,> 100,> 100,> 100,> 100 µM,–,–
COc1ccc(C2=CN3CCC[C@H]3C=C2c2cc(O)c(OC)c(OC)c2)cc1OC,0.0189,–,0.011,0.078 µM and 0.376 µM,–,–
CN1CCCCC(C(O)(c2ccccc2)c2ccccc2)C1=O (stereo unspecified),> 100,> 100,> 100,> 100 µM,> 100,> 100
COC(=O)c1cccc(C(=O)OC)c1,–,–,–,> 100 µM,–,> 100
Cc1cc(N=C2C=C(Nc3cc(C)on3)C(=O)c3ccccc32)no1,73.7,> 100,8.12,> 100 µM,> 100,> 100
Nc1nc(SCCC/C=C/I)nc2c1ncn2C1OC(CO)C(O)C1O (stereo unspecified),> 202,> 202,> 202,–,–,> 202
Clc1ncnc2c1ncn2CCCCCCCCCCCCn1cnc2c(Cl)ncnc21,3.55,30,5.7,17.5 µM,–,21.6
COc1nc2[nH]ccc2c(=O)n1C,> 100,–,–,> 100 µM,> 100,> 100
CC(=O)NC1=C(NCc2ccc(Cl)cc2)C(=O)c2ccccc2C1=O,–,> 50,11.2,13 µM,–,4.74
